Experimental findings from ChEMBL document CHEMBL3745627, “A Methylene Group on C-2 of 24,24-Difluoro-19-nor-1α,25-dihydroxyvitamin D3 Markedly Increases Bone Calcium Mobilization in Vivo” (J Med Chem, 2015) are described below.

Experiment [1] concerns Rattus norvegicus. Description: Induction of bone mobilization activity in weaning Sprague-Dawley rat assessed as increase in serum calcium level at 780 pmol, ip for 4 consecutive dose at an interval of 24 hrs measured 24 hrs after last dose (reference value: 4.4 to 4.5 mg/dl). It is filed as functional.
Experiment [2] relates to Rattus norvegicus. Description: Induction of bone mobilization activity in weaning Sprague-Dawley rat assessed as increase in serum calcium level at 16 pmol, ip for 4 consecutive dose at an interval of 24 hrs measured 24 hrs after last dose (reference value: 4.4 to 4.5 mg/dl). Format: functional.
Experiment [3] concerns Rattus norvegicus. Put plainly: Induction of bone mobilization activity in weaning Sprague-Dawley rat assessed as increase in serum calcium level at 87 pmol, ip for 4 consecutive dose at an interval of 24 hrs measured 24 hrs after last dose (reference value: 4.4 to 4.5 mg/dl). Format: functional.
Experiment [4] concerns HL-60. Description: Potency index, ratio ED50 of 1alpha,25-(OH)2D3 to ED50 of compound for induction of human HL60 cell differentiation. It is filed as functional.
The target of experiment [5] is T1, Vitamin D3 receptor (Rattus norvegicus) (UniProt P13053).
T1 sequence (whole entry): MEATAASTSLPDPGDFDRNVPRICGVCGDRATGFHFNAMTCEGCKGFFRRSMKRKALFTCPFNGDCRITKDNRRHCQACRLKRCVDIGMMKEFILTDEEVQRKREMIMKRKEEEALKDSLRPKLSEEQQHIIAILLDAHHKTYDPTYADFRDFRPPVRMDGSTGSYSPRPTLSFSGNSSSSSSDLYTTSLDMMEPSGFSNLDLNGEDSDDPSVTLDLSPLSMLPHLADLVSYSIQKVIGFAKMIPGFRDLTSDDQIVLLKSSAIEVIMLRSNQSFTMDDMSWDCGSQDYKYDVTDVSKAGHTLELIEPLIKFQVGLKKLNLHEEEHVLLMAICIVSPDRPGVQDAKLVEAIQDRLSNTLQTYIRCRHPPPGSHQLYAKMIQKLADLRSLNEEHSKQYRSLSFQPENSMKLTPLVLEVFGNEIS
Put plainly: Transactivation of VDR in rat osteosarcoma cells assessed as 24-hydroxylase transcriptional activity by luciferase reporter gene assay. Format: cell-based. In general terms: A reporter such as luciferase makes a cellular process visible.

The target of experiment [6] is T2, Vitamin D3 receptor (Rattus norvegicus, UniProt P13053).
T2 sequence (P13053 whole entry): T1 sequence (whole entry)
Put plainly: Displacement of [3H]1alpha,25-(OH)2D3 from full-length recombinant rat VDR by scintillation counter.

Experiment [7] concerns HL-60. Put plainly: Induction of human HL60 cell differentiation assessed as differentiation from promyelocytes to monocytes by NBT assay. Format: functional. The conditions noted are these: read-out: ED50 (the source's name).
In experiment [8] the test system is Rattus norvegicus. Description: Induction of bone mobilization activity in weaning Sprague-Dawley rat assessed as increase in serum calcium level at 260 pmol, ip for 4 consecutive dose at an interval of 24 hrs measured 24 hrs after last dose (reference value: 4.4 to 4.5 mg/dl). Format: functional.
Experiment [9] concerns Rattus norvegicus. Description: Induction of bone mobilization activity in weaning Sprague-Dawley rat assessed as increase in serum calcium level at 32 pmol, ip for 4 consecutive dose at an interval of 24 hrs measured 24 hrs after last dose (reference value: 4.4 to 4.5 mg/dl). It is filed as functional.
Experiment [10] relates to Rattus norvegicus. Put plainly: Induction of intestinal calcium transport in weaning Sprague-Dawley rat assessed as ratio of calcium level in serosal to mucosal at 780 pmol, ip for 4 consecutive dose at an interval of 24 hrs measured 24 hrs after last dose (reference value: 3.7 to 4.8). It is filed as functional.
For experiment [11], the system named is Rattus norvegicus. Put plainly: Induction of intestinal calcium transport in weaning Sprague-Dawley rat assessed as ratio of calcium level in serosal to mucosal at 260 pmol, ip for 4 consecutive dose at an interval of 24 hrs measured 24 hrs after last dose (reference value: 3.7 to 4.8). It is filed as functional.
The subject of experiment [12] is Rattus norvegicus. Description: Induction of intestinal calcium transport in weaning Sprague-Dawley rat assessed as ratio of calcium level in serosal to mucosal at 32 pmol, ip for 4 consecutive dose at an interval of 24 hrs measured 24 hrs after last dose (reference value: 3.7 to 4.8). It is filed as functional.
The test system of experiment [13] is Rattus norvegicus. Put plainly: Induction of intestinal calcium transport in weaning Sprague-Dawley rat assessed as ratio of calcium level in serosal to mucosal at 16 pmol, ip for 4 consecutive dose at an interval of 24 hrs measured 24 hrs after last dose (reference value: 3.7 to 4.8). Format: functional.

Take `C=C1/C(=C\C=C2/CCC[C@]3(C)[C@@H]([C@H](C)CCCC(C)(C)O)CC[C@@H]23)C[C@@H](O)C[C@@H]1O` [CALCITRIOL]: the Activity turned out to be 7.6 mg/dL in experiment [1], 5.3 mg/dL in experiment [2] and 6.6 mg/dL in [3].

What is called Ki is the dissociation constant of the complex between target and ligand, obtained from inhibition or displacement. As to `C=C1[C@H](O)CC(=C/C=C2\CCC[C@]3(C)[C@@H]([C@H](C)CCCC(C)(C)O)CC[C@@H]23)C[C@H]1O`, the “Ratio ED50” value in experiment [4] amounted to 150. Further, the ED50 in experiment [5] was 0.007 nM. In experiment [6], the Ki was determined as 0.03 nM. Besides, the EC50 in experiment [7] came out at 0.02 nM.

Regarding `C[C@H](CCC(F)(F)C(C)(C)O)[C@H]1CC[C@H]2/C(=C/C=C3C[C@@H](O)C[C@H](O)C3)CCC[C@]12C`, the results for the Activity in [8], in [1] and in [9] were 4.9 mg/dL, 5.9 mg/dL and 4.9 mg/dL, respectively. The figures for the Ratio in experiment [10], in experiment [11] and in [12] were 7.7, 6.9 and 9.4, respectively. In addition, the “Ratio ED50” value in [4] is 60. For the same molecule, the ED50 in [5] is 0.04 nM. In addition, the Ki in experiment [6] was determined as 0.02 nM. Besides, in experiment [7], the EC50 was found to be 0.05 nM.

As for `C=C1[C@H](O)CC(=C/C=C2\CCC[C@]3(C)[C@@H]([C@H](C)CCC(F)(F)C(C)(C)O)CC[C@@H]23)C[C@H]1O`, the values for the Activity in experiment [8], in experiment [1] and in experiment [9] were 9.4 mg/dL, 11.2 mg/dL and 6 mg/dL, respectively. The Ratio in [10] is on record as 16.4; in experiment [11], 11.6; in [12], 11.7. The “Ratio ED50” value in experiment [4] was found to be 30. Moreover, in experiment [5], the ED50 is 0.01 nM. For the same molecule, the Ki in [6] was 0.04 nM. In addition, the EC50 in experiment [7] was 0.1 nM.

`C=C1[C@H](O)CC(=C/C=C2\CCC[C@]3(C)[C@@H]([C@@H](C)CCC(F)(F)C(C)(C)O)CC[C@@H]23)C[C@H]1O`: the values for the Activity in experiment [8], in experiment [1] and in experiment [2] were 9.5 mg/dL, 9.8 mg/dL and 5.8 mg/dL, respectively. In addition, the Ratio is given as 6.6 in [13], 8.7 in experiment [10] and 12.4 in experiment [11]. In experiment [4], the “Ratio ED50” value is reported as 100. For the same molecule, the ED50 in experiment [5] came out at 0.02 nM. Besides, the Ki in experiment [6] is 0.03 nM. Moreover, the EC50 in [7] was determined as 0.03 nM.

In the case of `C[C@@H](CCC(F)(F)C(C)(C)O)[C@H]1CC[C@H]2/C(=C/C=C3C[C@@H](O)C[C@H](O)C3)CCC[C@]12C`, the values for the Activity in experiment [8], in [1] and in experiment [2] were 8.5 mg/dL, 9.8 mg/dL and 5.8 mg/dL, respectively. Also, the Ratio in [13] amounted to 6.6; in [10], 11.5; in experiment [11] it was 8.8. The “Ratio ED50” value in [4] is on record as 50. Moreover, the ED50 in experiment [5] worked out at 0.04 nM. The Ki in experiment [6] amounted to 0.03 nM. Moreover, in experiment [7], the EC50 stood at 0.06 nM.
